According to patent US7018623B2, “B complex vitamin compositions that protect against cellular damage caused by ultraviolet light” (priority 2001, dated 2006):

Assays:
[1] = system: human volunteers exposed to direct sunlight; assay: Oral self-administration of B vitamins by human subjects, sunburning on continuous exposure to sunlight; assay type: in vivo; conditions: for expected sunburning effects of continuous sun exposure: one patient, a year and a half, oral, B12 300–500 mcg/day, folic acid 2–5 mg/day, or both with niacinamide 200–500 mg/day
Experimental: 1. Over the period of four weeks a white middle aged couple in their forties on holiday in Mexico self administered 400–600 mcg vitamin B12/day in the form of 100 mcg tablets.
2. Over the period of a year and a half a […] self-administered vitamin B12 alone at 300 mcg to 500 mcg/day in the form of 100 mcg tablets, folic acid alone in the form of folic acid alone at 2 mg–5 mg/day in the form of 1 mg tablets or a combination of both vitamins in the same dose range taken with niacinamide 200 mg–500 mg/day in the form of 100 mg tablets. […] Normal burning rates returned within 24 hrs of the cessation of oral administration of the various formulations.
3. […] The published UVB index gave an expected time of continuous exposure to sunlight in the Edmonton AB area of 45 minutes. The maximum SPF (skin protection factor) was computed to be approximately 330/45=7.3.
5. These experiments have been repeated with approximately twenty human volunteers of various skin types ranging in age from 25 to 35 years. Most were female, one was a qualified physician, and many were qualified nurses or other healthcare professionals trained in observing symptoms of skin burning. Over the past year, a variety of different combinations of the three B complex vitamins were tested by exposure of these individuals to direct sunlight in locales such as Alberta Canada, Kelowna Canada, Mexico, Montego Bay Jamaica, San Diego Calif., Phoenix Ariz., Los Angeles Calif., and Honolulu, Hi. either in the course of their work or on vacation. The subjects had various skin types and were of many different nationalities.

[2] = human, topical application; cited from earlier work

Molecule	expected sunburning effects of continuous sun exposure [1]	systemic absorption and urinary excretion after application to the skin [2]	rate of sunburning when exposed continuously to sunlight ([1]; 400–600 mcg/day oral, four weeks, couple in Mexico, versus past experience and versus not taking the supplement)
Nc1nc2ncc(CNc3ccc(C(=O)N[C@@H](CCC(=O)O)C(=O)O)cc3)nc2c(=O)[nH]1 [folic acid]	some amelioration of the expected sunburning effects		
COc1ccc(C(=O)c2ccccc2)c(O)c1 [oxybenzone]		absorbed systemically and excreted in human urine soon after application to the skin	
vitamin B12	some amelioration of the expected sunburning effects		significant reduction in the rate of sunburning
